Laboratory results published in patent publication US10086001B2, “Composition for the treatment of cystic fibrosis” (SciPharm SàRL, priority 2009, dated 2018).

Legend:
[1] = test system: IB3-1 cells; test: Accumulation of [3H]cAMP in IB3-1 cells; assay type: cell-based, human; settings: for accumulation of cAMP: bronchoepithelial IB3-1 cells
Procedure: IB3-1 cells were plated on 6 well-plates (0.2*10^6 cells/well) in complete growth medium (LHC-8+5% FCS). The following day, the adenine nucleotide pool was metabolically labelled by incubation with [3H]adenine (1 μCi/well) in Dulbecco's Modified Eagle Medium (DMEM) containing adenosine deaminase (1 unit/ml) for 4 h. Cyclc AMP formation was stimulated by 20 μM forskolin or the PGI2-analogue treprostinil (Remodulin®). The assay was performed in triplicates. The formation of [^3H]cAMP was determined by sequential chromatography on Dowex 50WX-4 and neutral alumina columns followed by liquid scintillation counting of the eluate.

[2] = test system: human GFP-tagged wild type CFTR; test: Whole cell patch clamp, activation of Cl-current in IB3-1 cells transiently expressing GFP-tagged wild type CFTR; assay type: cell-based
Procedure: The whole cell patch clamp technique was used for current recordings performed at 22±1.5° C. using an Axoclamp 200B patch clamp amplifier (Axon Instruments). Pipettes had resistances between 1 and 2 MΩ when filled with the recording pipette solution (composition: 110 mM CsCl, 5 mM EGTA, 2 mM MgCl2, 1 mM K2.ATP, 10 mM Hepes, pH adjusted to 7.2 with CsOH). Voltage-clamp protocols and data acquisition were performed with pclamp 6.0 software (Axon Instruments). Data were low-pass filtered at 2 kHz (−3 dB) and digitized at 10-20 kHz. Cells were continuously superfused with external solution (composition: 145 mM NaCl, 4.5 mM KCl, 2 mM CaCl2, 1 mM MgCl2, 5 mM glucose, 10 mM Hepes, pH adjusted to 7.4 with NaOH). When indicated, the external solution contained Treprostinil (10 μM) or forskolin (5 μM), switching between solutions was achieved by electronically controlled pressure valves.
I3B-1 cells were grown on dishes (Nunc, 3.5 cm diameter) covered with fibronectin (10 μg/mL) rat collagen 1 (30 μg/mL) and BSA 10 μg/mL) in LHC-8 medium (Gibco) containing 5% fetal calf serum (FCS). Cells were transiently transfected with a plasmid driving the expression of human GFP-tagged wild type CFTR by using Lipofectamine Plus® (Invitrogen) according to the instructions of the manufacturer.
Representative current amplitudes recorded in the whole cell patch clamp configuration at +60 mV. A transiently transfected I3B-1 cell expressing GFP-tagged wild type CFTR was selected under fluorescent light and clamped to a holding potential at −40 mV. Depolarization was induced by a voltage step to +60 mV for 50 ms and the current amplitude was recorded. Wash-in of Treprostinil (10 μM final concentration, TP) was initiated at the time point 50 s and terminated at 125 s. Forskolin was washed in at 275 s and was removed at 375 s.

Compound | EC50 ([1]; Homo sapiens, IB3-1 cells, [3H]adenine labelling, FIG. 1, read-out: Half-maximum stimulation of cAMP accumulation) [nM] | accumulation of cAMP [1] | activation of the current induced by a depolarization from −40 mV holding potential to +60 mV ([2]; 10 μM Treprostinil, IB3-1 cell expressing CFTR-wt, FIG. 2) | time for current to decay to basal after washout ([2]; 10 μM Treprostinil, whole cell patch clamp at +60 mV) [s] | delay of response (maximum effect after wash-in, hysteresis in turn-off) ([2]; Treprostinil 10 μM or forskolin 5 μM, whole cell patch clamp)
CCCCC[C@H](O)CC[C@@H]1[C@H]2Cc3cccc(OCC(=O)[O-])c3C[C@H]2C[C@H]1O.[Na+] [Treprostinil, (1R,2R,3aS,9aS)-[[2,3,3a,4,9,9a-hexahydro-2-hydroxy-1-[(3S)-3-hydroxyoctyl]-1H-benz[f]inden-5-yl]oxy]acetic acid monosodium salt] | 300 to 1000 | concentration-dependent accumulation of cAMP | robust activation of the current | ~100 | only observed several s after wash-in
O=C1CN2Cc3c(ccc(Cl)c3Cl)N=C2N1 [Anagrelide] |  | did not induce any accumulation cAMP |  |  | 
